Experiments:
[1] = molecular target: T1, GST-ALK5 (TGF-beta receptor kinase) (Homo sapiens, UniProt P36897); assay: In-vitro (enzyme) kinase flashplate assay: GST-ALK5 phosphorylation of GST-SMAD2 with 33P-ATP; type: biochemical; conditions: 384-well flashplate kinase assay, GST-ALK5 / GST-SMAD2, 33P-ATP, 30° C., 45 min; read-out: TβR activity (Example 50)
T1 sequence (P36897 34-503): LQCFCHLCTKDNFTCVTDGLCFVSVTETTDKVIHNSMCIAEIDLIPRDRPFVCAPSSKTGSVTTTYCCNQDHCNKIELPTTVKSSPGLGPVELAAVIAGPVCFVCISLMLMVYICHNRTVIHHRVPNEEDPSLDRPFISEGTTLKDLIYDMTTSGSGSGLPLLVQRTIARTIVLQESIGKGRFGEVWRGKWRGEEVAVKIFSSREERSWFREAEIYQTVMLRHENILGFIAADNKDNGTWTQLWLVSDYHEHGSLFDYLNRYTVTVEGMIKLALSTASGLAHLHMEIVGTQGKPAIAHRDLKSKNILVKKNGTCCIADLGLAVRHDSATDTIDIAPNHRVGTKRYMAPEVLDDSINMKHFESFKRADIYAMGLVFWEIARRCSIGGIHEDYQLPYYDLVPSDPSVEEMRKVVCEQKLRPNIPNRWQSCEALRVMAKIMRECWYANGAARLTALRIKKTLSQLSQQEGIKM
Procedure, shortened: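 Flashplate format: 31.2 nM GST-ALK5, 439 nM GST-SMAD2, 3 mM ATP with 33P-ATP in HEPES/MgCl2/MnCl2/DTT/BSA buffer, pH 7.4, 45 min at 30 °C, 5–10 compound concentrations. EDTA stop, saline washes, radioactivity counted. IC50 calculated from the counts.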

[2] = tested on: TGF-beta-induced phosphorylation of Smad2 (Ser465/467) and Smad3 (Ser423/425) in Mv1-Lu cells; assay: Inhibition of Smad2/3 phosphorylation in Mv1Lu cells (PathScan Phospho-Smad2 ELISA); type: cell-based, mink Mustela vison; conditions: Neogale vison, Mv1-Lu cells, TGF-beta 1 5 ng/ml, Phospho-Smad2/3 ELISA, read-out: TβR activity (Example 51)
Procedure, shortened: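 Serum-starved mink Mv1-Lu lung epithelial cells were pretreated with compound for 1.5 h, then stimulated 1 h with 5 ng/ml TGF-beta 1 (0.2% DMSO). Phospho-Smad2/3 in lysates was quantified by ELISA against stimulated and unstimulated controls. IC50 was taken from dose-response fits.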

CCN(CC)CCOc1ncc(-c2cc(-c3cc(Cl)ccc3F)nc3ncccc23)c2ccncc12 [Compound 98, (2-{4-[2-(5-Chloro-2-fluoro-phenyl)-[1,8]naphthyridin-4-yl]-[2,7]naphthyridin-1-yloxy}-ethyl)-diethyl-amine]
IC50 [1]: < 1000 nM | IC50 [2]: < 1000 nM
